{
  "source": "paper PMC7487564",
  "about": "(Cell Communication and Signaling : CCS, 2020)",
  "key": {"[1]": {"molecular_target": "T1, human TIGIT/PVR (Homo sapiens, UniProt P15151)", "T1 construct": "purchased ACRO Biosystem CD5-H82F6; host or cells: PVR-Fc was purchased; TIGIT was expressed on CHO-K1 cells by lentiviral infection (CHOK1-hTIGIT)", "T1 sequence (P15151 28-343 limits assumed)": "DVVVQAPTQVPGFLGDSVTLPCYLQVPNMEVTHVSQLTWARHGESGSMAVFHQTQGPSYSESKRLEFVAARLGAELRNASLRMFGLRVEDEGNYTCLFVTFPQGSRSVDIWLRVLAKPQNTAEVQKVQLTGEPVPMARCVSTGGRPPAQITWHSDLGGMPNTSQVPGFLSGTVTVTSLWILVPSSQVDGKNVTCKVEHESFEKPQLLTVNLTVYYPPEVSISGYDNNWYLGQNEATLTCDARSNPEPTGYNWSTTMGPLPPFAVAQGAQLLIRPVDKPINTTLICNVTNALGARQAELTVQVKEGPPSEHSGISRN", "assay": "Cell based blocking assay, CHOK1-hTIGIT cells and human PVR-Fc", "settings": "CHOK1-hTIGIT cells, highest concentration", "protocol": "Cell based blocking assay was performed according to the previous report [30]. […] Then the mixture of PVR protein and compounds were incubated with CHOK1-TIGIT cells for another 30 min, followed by incubation with detection antibody anti-human IgG-PE (eBioscience) for 30 min. Cells were then washed with FACS buffer to remove the unbound fluorescent antibodies, acquired on a FACS Caliber™ (BD Biosciences) and analyzed by FlowJo. […] Cells incubated with corresponding Fc tagged protein and anti-human IgG-PE served as positive control, while cells only incubated with anti-human Fc-PE served as negative control. The mean fluorescent intensity (MFI) was recorded for calculating the blocking efficiency as the formula: Blocking%=MFIof positive control−MFIof tested compounds/MFIof positive control×100%."}, "[2]": {"molecular_target": "T2, PVR (Homo sapiens, UniProt P15151)", "T2 construct": "purchased ACRO Biosystem CD5-H82E3", "T2 sequence (P15151 21-417)": "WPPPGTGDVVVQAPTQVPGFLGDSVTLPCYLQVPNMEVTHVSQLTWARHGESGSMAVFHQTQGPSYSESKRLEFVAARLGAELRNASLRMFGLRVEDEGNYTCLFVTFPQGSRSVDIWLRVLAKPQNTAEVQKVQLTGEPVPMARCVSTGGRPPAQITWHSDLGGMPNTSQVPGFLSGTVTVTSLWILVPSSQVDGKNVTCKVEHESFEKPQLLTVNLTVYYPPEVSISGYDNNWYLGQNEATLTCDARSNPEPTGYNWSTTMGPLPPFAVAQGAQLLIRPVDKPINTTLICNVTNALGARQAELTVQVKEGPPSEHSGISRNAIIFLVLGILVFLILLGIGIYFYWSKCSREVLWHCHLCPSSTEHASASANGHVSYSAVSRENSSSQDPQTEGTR", "assay": "Biolayer interferometry-based (BLI) binding assay", "settings": "for Kd: read-out: KD to PVR protein (BLI)", "procedure": "BLI experiments were performed in PBS supplemented with 0.1% (w/v) BSA, 0.002% (v/v) Tween 20 and 1% DMSO, with an Octet RED96 instrument (FortéBio), operating at 25 °C. The biotinylated PVR carrying a C-terminal AVITAG (CD5-H82E3, ACRO Biosystem) was loaded to saturation onto Super Streptavidin (SSA) biosensors (Pall/FortéBio), and blocked with 200 μL biotin (5 μg/mL) for 60 s. Before the assay, the PVR-labeled SSA sensors were pre-soaked in binding buffer for 30 min. The twenty-two small molecule compounds were preliminary screened for binding to PVR at a single concentration of 100 μM. […] The dissociation was monitored by washing the ligand biosensors from the analyte solution to binding buffer for 60 s. Double reference-subtracted sensorgrams were analyzed using Data Analysis 9.0 (Pall/Forte Bio), and binding responses at the end of the association phase were reported."}, "[3]": {"test_system": "MC38 tumor", "assay": "Anti-tumor experiment and ex vivo assays, MC38 tumor-bearing mice", "format": "in vivo, C57BL/6 mice", "procedure": "All mice experimental procedures were approved by the Ethics Committee of Zhengzhou University. Six-week-old female C57BL/6 mice (Vital River Laboratories, China) were maintained in a specific pathogen-free facility. Food and water were supplied ad libitum. Mice were acclimatized for about 1 week before the experiment. C57BL/6 mice were subcutaneously (s.c.) injected on the right flank with 1 × 10^6 syngeneic MC38 cells in 200 μL PBS. One week later, tumor-bearing mice were randomized into groups of negative control (normal saline with 3% DMSO and 0.5% Tween-80), 0.5, 1.5, 5 and 15 mg/kg of compounds or anti-TIGIT and isotype control groups. Mice were treated with 200 μL control or indicated compound through intraperitoneal (i.p.) injection every other day for 2 weeks, or with 200 μg anti-TIGIT (clone:1G9, Bioxcell) or isotype control mouse IgG (I5381, Sigma) through i.p. injection every 3 days for 2 weeks. Tumor sizes were measured using a digital caliper, and tumor volumes were calculated as the formula: V=1/2×alength×bwidth×cheight\nFor indicated immune cell depletion models, MC38 mice were injected with 250 μg anti-CD4 (clone: GK1.5), 200 μg anti-CD8 (clone: YTS169.4) or matched rat IgG control (I4131, Sigma), 200 μg anti-NK1.1 (clone: PK136) or matched mouse IgG control (I5381, Sigma) the day before the start of tumor inoculation, as well as weekly thereafter, resulting in a total of 3 injections per mouse. The depletion efficacy was confirmed by flow cytometry analysis with the blood sample of mice treated with indicated antibodies for 6 days. Mouse anti-CD45 FITC (clone: 30-F11, eBioscience), anti CD3 PerCP-eFluor710 (clone: 17A2, eBioscience), anti-CD8α APC (clone: 53–6.7, eBioscience), anti-CD4 APC (clone: GK1.5, eBioscience) and anti-NK1.1 PE (clone: PK136, eBioscience) were used.\nUpon completion of treatment, MC38 tumor-bearing mice were sacrificed, and the tumors were dissected and digested by 100 U/mL collagenase IV (Invitrogen) and 100 U/mL Dnase I (Sigma) for 60 min, and then filtered through a 70 μm nylon cell strainer to single cell suspension. The cells were incubated with mouse anti-CD45 FITC (clone: 30-F11, eBioscience), mouse anti-CD3 PerCP-eFluor710 (clone: 17A2, eBioscience), and mouse anti-CD8α APC (clone: 53–6.7, eBioscience) to detect the frequency of infiltrating CD8^+ T cells. For functional assay, the tumor-infiltrating lymphocytes were isolated from tumor cell suspension by discontinuous Percoll density gradients (40 and 70%) (GE Healthcare). The isolated tumor-infiltrating lymphocytes, splenocytes and draining lymph node cells prepared by gentle mechanical disruption were stimulated with or without 20 ng/mL phorbol 12-myristate 13-acetate (PMA, Sigma) and 1 μMionomycin (Sigma) in the presence of protein transport inhibitor for 4 h. The following procedure of intracellular cytokine staining assay was performed as mentioned above, and the antibodies for the staining were mouse anti-CD3 PerCP-eFluor710, mouse anti-CD8α PE, and mouse anti-IFN-γ APC (clone: XMG1.2, eBioscience)."}, "[4]": {"assay": "Potential side effects in mice", "format": "in vivo", "settings": "different concentrations administrated for at least one week"}, "[5]": {"test_system": "MC38 cells", "assay": "Cell viability assay (MTT)", "format": "cell-based, murine", "settings": "12.5 to 100 μM, 3 days", "procedure": "The cytotoxic effects of indicated compound on MC38 cells were determined by MTT assay. MC38 cells were seeded into 96-well plates at a density of 3000 cells/well and allowed to grow for adhesion. Cells were treated with medium with 1% DMSO as negative control or with a series dilution of indicated compound at a concentration range of 12.5 to 100 μM. Cell viability was ascertained using MTT reagent (Sigma) dissolved in 5 mg/mL PBS and incubated at 37 °C for 4 h in the following 3 days. Formazan crystals formed by viable cells were dissolved in 150 μL DMSO in each well. MTT reduction was quantified by measuring the absorbance at 490 nm."}},
  "data": [
    {"smiles": "COc1cc(/C=C/C(=O)CC(=O)/C=C/c2ccc(O)c(OC)c2)ccc1O", "note": "[SMC 6, Curcumin]", "values": [
      {"measurement": "blocking efficacy of TIGIT/PVR", "setting": "[1]", "value": 52, "unit": "%"},
      {"measurement": "Kd", "setting": "[2]; series of concentrations", "value": 42, "unit": "µM"}
    ]},
    {"smiles": "O=C(O[C@@H]1Cc2c(O)cc(O)cc2O[C@@H]1c1ccc(O)c(O)c1)c1cc(O)c(O)c(O)c1", "note": "[SMC 22, Epicatechin gallate]", "values": [
      {"measurement": "blocking efficacy of TIGIT/PVR", "setting": "[1]", "value": "extremely low blocking efficacy"},
      {"measurement": "Kd", "setting": "[2]; series of concentrations", "value": 5.9, "unit": "µM"}
    ]},
    {"smiles": "O=C1/C(=C2\\Nc3ccccc3C2=O)Nc2ccccc21", "note": "[SMC 2, Indigo]", "values": [
      {"measurement": "KD to PVR protein (BLI)", "setting": "[2]; series of concentrations", "value": "could not fit a determined KD value"},
      {"measurement": "BLI response, primary screening", "setting": "[2]; single concentration of 100 μM", "value": "relatively good response"}
    ]},
    {"smiles": "N[C@@H](Cc1cc(I)c(Oc2ccc(O)c(I)c2)c(I)c1)C(=O)O", "note": "[SMC 14, Liothyronine]", "values": [
      {"measurement": "anti-tumor effects, MC38 tumor model", "setting": "[3]; 0.5 mg/kg i.p. every other day", "value": "almost no anti-tumor effects"},
      {"measurement": "anti-tumor effects with CD4+, CD8+ T and NK cells depleted", "setting": "[3]; 5 mg/kg, MC38 model, depletion antibodies", "value": "almost disappeared"},
      {"measurement": "anti-tumor effects, MC38 tumor model", "setting": "[3]; 15 mg/kg compared with 5 mg/kg, i.p. every other day", "value": "equivalent"},
      {"measurement": "MC38 tumor growth", "setting": "[3]; high dose 5 mg/kg i.p. every other day", "value": "significantly inhibit"},
      {"measurement": "MC38 tumor growth", "setting": "[3]; low dose 1.5 mg/kg i.p. every other day", "value": "significantly inhibit"},
      {"measurement": "side effects on mental state, weight and diet of the mice", "setting": "[4]", "value": "no obvious effects"},
      {"measurement": "cell viability of MC38 cells (MTT)", "setting": "[5]", "value": "did not impact the cell viability"}
    ]}
  ]
}
